Source: patent US7811778B2, “Methods of screening for gastrointestinal cancer” (Vanderbilt University, priority 2006, dated 2010)
Values joined by “and” are separate entries in the source; they are usually repeats but may differ in a detail not shown here. Equal values may be shown once. “Also recorded” adds a separate entry of the source.

Tests used:
[1] = system: parietal cells; settings: cited from earlier work
[2] = system: chief cells / SPEM cells at the bases of fundic glands; assay: Electron microscopy of gastric fundic region; type: in vivo; settings: gastrin-deficient mice treated for 3 days with DMP-777
Procedure: Fresh specimens from the gastric fundic region of untreated controls and 3-day DMP-777 treated gastrin-deficient mice fixed for 2.5 hour on ice in 2.5% glutaraldehyde, 0.1 M Cacodytate Buffer in PBS. The samples were fixed overnight at 4° C. in 1% osmium tetroxide (OSO4) and 0.1M Cacodylate Buffer. Subsequently, the samples were subjected to an ethanol dehydration series and embedded in Spurrs resin. 50˜100 nm thin sections were cut and collected on 200-mesh, formvar-coated copper grids. After drying overnight, the grids were contrast stained with 2% depleted Uranyl Acetate (UA) and then stained with saturated lead citrate. Samples were examined on a Philips CM12 Electron Microscope.

Structure (SMILES): CCC[C@@H](NC(=O)N1C(=O)C(CC)(CC)[C@@H]1Oc1ccc(C(=O)N2CCN(C)CC2)cc1)c1ccc2c(c1)OCO2 [DMP-777]
- inflammatory infiltrate ([1]; DMP-777 treated animals): absence of significant inflammatory infiltrate
- induction of SPEM in gastrin-deficient (knockout) mice ([1]; gastrin knockout mice): rapid induction of metaplasia after only one day of DMP-777 treatment; also recorded: develop SPEM after only one dose of DMP-777; also recorded: develop SPEM after only a single dose of DMP-777
- surface cell (foveolar) hyperplasia in response to DMP-777 ([1]; gastrin knockout mice): do not develop surface cell hyperplasia
- cells expressing both intrinsic factor and TFF2 (dual expressing cells) ([1]; gastrin-deficient mice, after only one day of treatment): rapid increase in dual expressing cells
- loss of parietal cells ([1]; mice or rats, high doses of oral DMP-777 (>200 mg/kg/d), three days of administration): rapid loss of parietal cells
- time of oxyntic atrophy until SPEM develops in the fundus ([1]; mice or rats, oral DMP-777 >200 mg/kg/d): 7 to 10 days
- dysplastic lesions ([1]; mice or rats, prolonged administration of drug for up to a year): no dysplastic lesions are ever observed
- time to loss of acid-secreting parietal cells ([1]; rodents): within one to three days
- days of treatment required for SPEM in wild type C57BL/6 mice ([1]; wild type C57BL/6 mice): 7 to 10 days and 10 to 14 days
- granule morphology of SPEM cells at the bases of fundic glands (electron microscopy) [2]: heterogeneous set of granule morphologies
- morphological evidence of apoptosis (electron microscopy) [2]: no morphological evidence of apoptosis
